# From patent US9790173B2, “Alpha-7 nicotinic acetylcholine receptor modulators and uses thereof-I” (MERCK SHARP & DOHME CORP., priority 2012, dated 2017)
# Target: T1, rat α7 nAChRs (Rattus norvegicus, UniProt Q05941)
# T1 construct: expressed in transfected cells; host or cells: GH4C1 cells (rat pituitary line) stably expressing α7 nAChR
# Experiment: Automated planar patch clamp (Patchliner) electrophysiology, α7 nAChR PAM activity
# Format: cell-based
# Design: key to Type I or Type II: I: Type 1 predominately affects the peak current; Type II modulators affect the peak current and also delay the desensitization of the receptor
# Conditions: for activation at 3 µM: GH4-C1, 3 μM compound in the presence of acetylcholine, GH4C1 cells expressing rat α7 nAChRs, peak current, read-out: Peak potentiation at 3 μM compound; for Type I or Type II: modulator type based on the electrophysiology trace
# Experimental: Tested compounds were prepared by serial dilutions of 10 mM stock solution in DMSO to concentrations of the compound 1000 times higher than its final concentration. The DMSO stock solutions were then diluted 1:100 in the recording buffer bringing DMSO concentration to 1%. These intermediate solutions were further diluted 10 times with buffer to obtain final concentrations and lower DMSO concentration to 0.1%. […]
# Compounds of the invention may be evaluated by electrophysiology using a Patchliner® (Nanion Technologies GmbH, Germany), an automated planar patch-clamp platform of medium throughput was used as a first step in electrophysiological assessment of α7 nAChR positive allosteric modulators (PAMs).
# Briefly, intracellular (KCl—50 mM, NaCl—10 mM, KF—60 mM, EGTA—20 mM, HEPES—10 mM, pH—7.2, 285 mOsmol) and extracellular (NaCl—140 mM, KCl—4 mM, CaCl2—2 mM, MgCl2—1 mM, HEPES—10 mM, D-Glucose—5 mM, pH—7.4, 298 mOsmol) solutions were automatically pipetted onto NPC-16 chip (medium resistance ˜2.5-2.6 MΩ). Suspension of GH4C1 cells expressing rat α7 nAChRs was introduced in 4 wells of a medium resistance chip and suction was applied to attract cells in the holes. The extracellular solution was subsequently exchanged to high calcium solution (NaCl—80 mM, KCl—3 mM, CaCl2—45 mM, HEPES—10 mM, pH—7.4, 298 mOsmol) followed by gigaohm seal formation and obtaining whole-cell configuration. The rest of protocol was carried out in the high-calcium recording solution. Holding potential was −70 mV throughout the protocol. A control response to 60 or 100 μM of ACh was obtained first. Next, a cell was pre-incubated with compound of interest at 3 μM for ˜30 s after which the compound was co-applied with acetylcholine.
# Amplitude of the responses was measured in HEKA Patchmaster software (HEKA Elektronik, Germany) and percentage of potentiation calculated. Recording was repeated […] a minimum of two replicates had been obtained per compound.
# Compounds shown in Table 1 were evaluated by automated planar patch clamp on the Patchliner® as described in Example P2.1. […] The compounds are designated either as Type I or Type II modulators based on the electrophysiology trace. Type 1 predominately affects the peak current. Type II modulators affect the peak current and also delay the desensitization of the receptor.
# T1 sequence (Q05941 23-502): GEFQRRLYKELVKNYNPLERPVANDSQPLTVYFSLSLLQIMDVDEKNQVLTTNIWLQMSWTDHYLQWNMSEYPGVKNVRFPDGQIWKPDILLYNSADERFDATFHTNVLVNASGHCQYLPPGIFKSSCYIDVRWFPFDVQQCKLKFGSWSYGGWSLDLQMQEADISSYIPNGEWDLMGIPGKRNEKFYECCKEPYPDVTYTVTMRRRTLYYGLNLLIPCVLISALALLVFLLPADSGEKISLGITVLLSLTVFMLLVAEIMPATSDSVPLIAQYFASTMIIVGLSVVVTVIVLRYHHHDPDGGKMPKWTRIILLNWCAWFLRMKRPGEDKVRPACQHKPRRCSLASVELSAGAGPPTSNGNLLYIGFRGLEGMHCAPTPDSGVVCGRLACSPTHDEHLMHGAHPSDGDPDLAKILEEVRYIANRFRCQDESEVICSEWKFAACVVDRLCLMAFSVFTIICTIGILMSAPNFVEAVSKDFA
Structure (SMILES),activation at 3 µM,Type I or Type II
"CC1(C)[C@@H](CNc2cc(OC(F)(F)F)ccc2F)[C@@H]1c1ccc(S(N)(=O)=O)cc1 [Example 40, ±trans 4-[3-({[2-fluoro-5-(trifluoromethoxy)phenyl]amino}methyl)-2,2-dimethylcyclopropyl]benzenesulfonamide]",309%,II
"CC1(C)[C@H](CNc2cncc(F)c2)[C@H]1c1ccc(S(N)(=O)=O)cc1 [Example 10, ±trans 4-[3-{[(5-fluoropyridin-3-yl)amino]methyl}-2,2-dimethylcyclopropyl]benzenesulfonamide]",,II
"CCc1ccc(F)cc1NC[C@H]1[C@H](c2ccc(S(N)(=O)=O)cc2)C1(C)C [Example 39, ±trans 4-[3-{[(2-ethyl-5-fluorophenyl)amino]methyl}-2,2-dimethylcyclopropyl]benzenesulfonamide]",,II
"Cc1ccc(F)cc1NC[C@@H]1[C@@H](c2ccc(S(N)(=O)=O)cc2)C1(C)C [Example 29, 4-[(1R,3R)-3-{[(5-fluoro-2-methylphenyl)amino]methyl}-2,2-dimethylcyclopropyl]benzenesulfonamide]",456%,I
"CC1(C)[C@@H](CNc2cc(F)ccc2OC(F)(F)F)[C@@H]1c1ccc(S(N)(=O)=O)cc1 [Example 41, ±trans 4-[3-({[5-fluoro-2-(trifluoromethoxy)phenyl]amino}methyl)-2,2-dimethylcyclopropyl]benzenesulfonamide]",,I
"CCOc1ccccc1NC[C@@H]1[C@@H](c2ccc(S(N)(=O)=O)cc2)C1(C)C [Example 44, ±trans 4-[3-{[(2-ethoxyphenyl)amino]methyl}-2,2-dimethylcyclopropyl]benzenesulfonamide]",,I
"CC1(C)[C@H](CNc2cc(F)ccc2OCC(F)(F)F)[C@H]1c1ccc(S(N)(=O)=O)cc1 [Example 16, 4-[(1R,3R)-3-({[5-fluoro-2-(2,2,2-trifluoroethoxy)phenyl]amino}methyl)-2,2-dimethylcyclopropyl]benzenesulfonamide]",236%,I
"COc1ccc(Cl)cc1N(C)C[C@@H]1[C@@H](c2ccc(S(N)(=O)=O)cc2)C1(C)C [Example 7, ±trans 4-(3-{[(5-chloro-2-methoxyphenyl)(methyl)amino]methyl}-2,2-dimethylcyclopropyl)benzenesulfonamide]",134%,I
"CC1(C)[C@H](CNc2ccnc(C(F)(F)F)c2)[C@H]1c1ccc(S(N)(=O)=O)cc1 [Example 11, ±trans 4-[2,2-dimethyl-3-({[2-(trifluoromethyl)pyridin-4-yl]amino}methyl)cyclopropyl]benzenesulfonamide]",15%,II
"NS(=O)(=O)c1ccc([C@@H]2C[C@H]2CNc2ccc(F)cc2)cc1 [Example 18, 4-[(1R,2R)-2-{[(4-fluorophenyl)amino]methyl}cyclopropyl]benzenesulfonamide]",,I
"CC1(C)[C@H](CNc2ccccc2)[C@H]1c1ccc(S(N)(=O)=O)cc1 [Example 5, ±trans 4-{2,2-dimethyl-3-[(phenylamino)methyl]cyclopropyl}benzenesulfonamide]",,II
"CC1(C)[C@H](CNc2cccc(N3CCOCC3)c2)[C@H]1c1ccc(S(N)(=O)=O)cc1 [Example 26, ±trans 4-[2,2-dimethyl-3-({[3-(morpholin-4-yl)phenyl]amino}methyl)cyclopropyl]benzenesulfonamide]",455%,II
"CC1(C)C(c2ccc(S(N)(=O)=O)cc2)[C@H]1CNc1ccc(F)cc1OC(F)F (mixture of isomers) [Example 34, ±trans 4-[3-({[2-(difluoromethoxy)-4-fluorophenyl]amino}methyl)-2,2-dimethylcyclopropyl]benzenesulfonamide]",,II
"COc1ccc(Cl)cc1NC[C@@H]1[C@@H](c2ccc(S(N)(=O)=O)cc2)C1(C)C [Example 4, ±trans 4-(3-{[(5-chloro-2-methoxyphenyl)amino]methyl}-2,2-dimethylcyclopropyl)benzenesulfonamide]",,II
"Cc1cc(F)ccc1NC[C@@H]1[C@@H](c2ccc(S(N)(=O)=O)cc2)C1(C)C (single isomer, unassigned; enantiomer a) [Example 57, Enantiomer A of trans 4-[3-{[(4-fluoro-2-methylphenyl)amino]methyl}-2,2-dimethylcyclopropyl]benzenesulfonamide]",473%,I
"COc1ccc(Cl)cc1NC[C@@H]1[C@@H](c2ccc(NS(C)(=O)=O)cc2)C1(C)C (single isomer, unassigned; enantiomer a) [Example 47]",867%,I
"COc1ccccc1NC[C@@H]1[C@@H](c2ccc(S(N)(=O)=O)cc2)C1(C)C [Example 25, ±trans 4-[3-{[(2-methoxyphenyl)amino]methyl}-2,2-dimethylcyclopropyl]benzenesulfonamide]",,II
"Cc1cc(F)ccc1NC[C@@H]1[C@@H](c2ccc(S(N)(=O)=O)cc2)C1(C)C (racemic) [Example 38, ±trans 4-[-3-{[(4-fluoro-2-methylphenyl)amino]methyl}-2,2-dimethylcyclopropyl]benzenesulfonamide]",,II
"NS(=O)(=O)c1ccc([C@H]2C[C@@H]2CNc2ccc(C(F)(F)F)cn2)cc1 [Example 12, ±trans 4-[2-({[5-(trifluoromethyl)pyridin-2-yl]amino}methyl)cyclopropyl]benzenesulfonamide]",401%,I
"Cc1cc(F)ccc1NC[C@H]1[C@H](c2ccc(S(N)(=O)=O)cc2)C1(C)C (single isomer, unassigned; enantiomer b) [Example 58, Enantiomer B of trans 4-[3-{[(4-fluoro-2-methylphenyl)amino]methyl}-2,2-dimethylcyclopropyl]benzenesulfonamide]",,II
"CC(C)(C)c1cc(NC[C@@H]2C(c3ccc(S(N)(=O)=O)cc3)C2(C)C)no1 (mixture of isomers) [Example 35, ±trans 4-(3-{[(5-tert-butyl-1,2-oxazol-3-yl)amino]methyl)}2,2-dimethylcyclopropyl)benzenesulfonamide]",57%,II
"NS(=O)(=O)c1ccc([C@H]2C[C@@H]2CNc2ccc(F)c(F)c2)cc1 [Example 2, ±trans 4-(2-{[(3,4-difluorophenyl)amino]methyl}cyclopropyl)benzenesulfonamide]",,II
"COc1ccc(Cl)cc1NC[C@@H]1[C@@H](c2ccc(-c3ccccc3O)cc2)C1(C)C [Example 43, ±trans 4′-[3-{[(5-chloro-2-methoxyphenyl)amino]methyl}-2,2-dimethylcyclopropyl]biphenyl-2-ol]",100%,I
